Results from patent publication US7291601B1, “Arginine-rich anti-vascular endothelial growth factor peptides that inhibit growth and metastasis of human tumor cells by blocking angiogenesis” (Korea Greencross Corp., priority 1999, dated 2007).
pIC50, pKd: −log10 of the molar value.

Legend:
VEGF [1] = biological target: T1, VEGF (Homo sapiens, UniProt P15692); assay: Inhibition of 125I-labeled VEGF binding to its receptors on HUVEC; conditions: for pIC50: HUVEC, peptides at 1, 4, 10 and 20 μM/sequence (FIG. 5)
T1 sequence (P15692 27-191 isoform P15692-4): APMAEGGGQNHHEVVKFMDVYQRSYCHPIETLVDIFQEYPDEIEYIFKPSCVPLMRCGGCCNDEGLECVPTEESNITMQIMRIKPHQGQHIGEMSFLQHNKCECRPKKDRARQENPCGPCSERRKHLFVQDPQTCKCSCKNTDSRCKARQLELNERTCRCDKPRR
Description: Then, the cells were transferred to a medium (Medium 199/25 mM HEPES, pH 7.4/0.1% bovine serum albumin) containing 0.2 ng of ^125I-labeled VEGF and various concentrations of peptides or combinatorial peptide libraries and reacted at 4° C. for 3 hours. The cells were washed twice with the same medium and once with PBS containing 0.1% albumin to remove the labeled VEGF which still remained uncombined. Thereafter, to quantify the labeled VEGF which bound to receptors present on the surface of the vascular endothelial cells, the cells were treated with 0.5 ml of a lysis solution (20 mM Tris-HCl, pH 7.4/1% TritonX-100) for 20 min, followed by measuring the resulting lysate for radioactivity with the aid of a γ-counter.
The sequence of each peptide was indirectly decided through the analysis of amino acid compositions and its concentration was determined, after which 12 peptides were assayed for antagonism toward VEGF binding at various concentrations (1, 4, 10, and 20 μM/sequence).

VEGF [2] = biological target: T1, VEGF; assay: 125I-labeled VEGF association with peptides fixed on ELISA plate, competition; format: binding; conditions: determined from IC50: KD=IC50−[non-labeled Competitor]; fixed peptide 100 ng/well; read-out: dissociation constant (KD) between VEGF and peptide
Description: To verify the postulated mechanism in which the screened peptides might be associated directly with VEGF so as to inhibit VEGF from binding to its receptors present on the surface of vascular endothelial cells, the following experiments were conducted. Each of the hexa-peptides was fixed on a 96-well ELISA plate at a concentration of 100 ng/well in such a manner that a 20% acetic acid solution containing each peptide was dried in air. The plate was treated three times with a phosphate buffered saline containing 0.1% albumin for 3 min each time. A solution of ^125I-labeled VEGF in the same phosphate buffered saline was added to the plate at a concentration of 0.2 ng/well and incubated at 37° C. for 1 hour to associate the labeled VEGF with the peptides. To remove the […] remaining unassociated, the plate washed four times with the same phosphate buffered saline for 3 min per each time, followed by measuring radioactivity with the aid of a γ-counter. As for the non-specific binding, it was determined by incubation in the presence of either a mixture of the labeled VEGF and non-labeled VEGF or a mixture of the fixed peptide and unfixed peptide in a molar ratio of 1:100. This was set as a negative control.
With reference to FIG. 7, radioactivity measured from ^125I-labeled VEGF associated with fixed peptides is plotted versus molar ratios of a competitor, such as non-labeled VEGF or free peptides, to its counterpart. […] The dissociation constant (KD) between VEGF and each peptide was determined using the IC50) value according to the following formula (De Blasi, A. et al., Trends Pharmacol. Sci., 10, 227 (1989)). KD=IC50−[non-labeled Competitor]

[3] = tested on: VEGF-induced DNA synthesis of HUVEC; assay: VEGF-induced DNA synthesis of HUVEC ([methyl-3H] thymidine); format: cell-based, human; conditions: FIG. 10a
Description: In a gelatin-coated 48-well plate (Nunc) HUVEC were cultured at a density of 10^4 cells/well at 37° C. for one day, followed by washing the cells three times with serum-free medium 199. After being added with culture media containing VEGF (10 ng/ml, R&D systems) and various concentrations of the screened peptides, the cells were cultured at 37° C. After 24 hours of culturing, the cells were added with [methyl-^3H] thymidine (0.5 μCi/well) and cultured for an additional one day. Before quantification of the radioactivity used for the DNA synthesis with the aid of a liquid scintillation counter, the cells were washed with PBS containing 0.1% albumin, treated with 0.4 N NaOH at room temperature for 20 min for cell lysis, and neutralized with 2 N HCl. In order to determine the toxicity of the peptides, HUVEC were examined as in above using excess peptide (100 μM) in the absence of VEGF.

[4] = tested on: human fibro-sarcoma cells; assay: Viability of human fibro-sarcoma cells (tetrazolium dye); format: cell-based; conditions: 3 days incubation, various concentrations
Description: The following experiment was carried out to determine whether peptides antagonistic to VEGF have direct influence on the growth of human fibro-sarcoma cells. After being cultured for one day in a 96-well plate (Nunc), the cancer cells were added with DMEM containing various concentrations of the screened peptides and incubated. To the cells remaining alive after 3 days of incubation, 20 μl of tetrazolium dye (Cell Titer 96 Non-Radioactive Proliferation assay kit, Promega) was added, followed by incubation at 37° C. for 4 hours. The formazan produced by the viable cells was dissolved in 0.2 ml of dimethyl sulfoxide (DMSO) quantified by the absorbance at 570 nm. The absorbance attributed to formazan is proportional to living cells.

[5] = tested on: HM7 (human colon carcinoma cell line); assay: Growth of HM7 cancer cells in vitro (tetrazolium dye); format: cell-based; conditions: 5×10^3 cells/well
Excerpt: In order to conduct an experiment concerning the metastasis of cancer cells to the liver, cancerous cells were transplanted into the spleen. In this regard, after being anesthetized with diethyl ether, 4-week-old male mice (athymic nude mice, BALB/c/nu/nu, Charles River, Japan) underwent flank incision. […] Four weeks after the injection, the liver was excised from each mouse and measured for weight and the size and number of metastatic nodules formed. Each test group was composed of 6-7 mice. In a student's t-test, a p value less than 0.05 was regarded as being statistically significant. In the test using tetrazolium dye (cell titer 96 Non-radioactive Proliferation Assay Kit, Promega), each peptide was evaluated to have no influence on the growth of the cancer cells (5×10^3 cells/well), so that the possibility that the toxicity of the peptide themselves might inhibit the growth and metastasis of cancer cells could be excluded.

[6] = Acute toxicity test on rat upon non-oral administration; format: in vivo; conditions: 1 mg/kg, intramuscular injection; for LD50: rat, in vivo, im, SD rats, read-out: lethal dose (LD50)
Description: Using specific pathogen-free (SPF) SD rats which were six weeks old, the peptides of Sequences 1, 2, and 3 were tested for acute toxicity. Suspensions of the peptides in 1 ml of PBS were administered at a dose of 1 mg/kg to the rats, which were grouped in twos, by intramuscular injection. […] An autopsy was made of the rats with the naked eye to observe whether their abdominal and thoracic organs were damaged. Neither sudden death nor noticeable clinical symptoms were detected in any of the animals administered with the peptides of interest.

Molecule | pIC50 (VEGF [1]) | pKd (VEGF [2]) | inhibition of VEGF-induced growth of vascular endothelial cells [3] | direct influence on growth / viability of human fibro-sarcoma cells ([4]; listed as SEQ ID NO: 3) | direct influence on growth / viability of human fibro-sarcoma cells ([4]; listed as Sequence 3) | influence on growth of the cancer cells / cytotoxicity to human colon carcinoma cells [5] | toxic changes to the rats [6] | LD50 [6] [mg/kg] | direct influence on growth / viability of human fibro-sarcoma cells ([4]; listed as SEQ ID NO: 2) | direct influence on growth / viability of human fibro-sarcoma cells ([4]; listed as Sequence 2) | inhibition of binding of labeled VEGF165 to its receptors (VEGF [1]; recombinant labeled VEGF165, FIG. 9) | direct influence on growth / viability of human fibro-sarcoma cells ([4]; listed as SEQ ID NO: 1) | direct influence on growth / viability of human fibro-sarcoma cells ([4]; listed as Sequence 1)
N=C(N)NCCC[C@H](NC(=O)[C@H](CCCNC(=N)N)NC(=O)[C@H](CCCNC(=N)N)NC(=O)[C@H](CCCNC(=N)N)NC(=O)[C@H](CCCNC(=N)N)NC(=O)[C@@H](N)CCCNC(=N)N)C(N)=O [compound 11, NH2-Arg-Arg-Arg-Arg-Arg-Arg-CONH2] | 5.42 | 4.66 | inhibit the VEGF-induced growth of vascular endothelial cells in a dose-dependent pattern | no direct influence on human fibro sarcoma cells | damage neither | damage neither | no toxic changes | ≥ 1 |  |  |  |  | 
H-RKKRKR-NH2 [compound 1, NH2-Arg-Lys-Lys-Arg-Lys-Arg-CONH2] | 5.47 | 5.70 | inhibit the VEGF-induced growth of vascular endothelial cells in a dose-dependent pattern |  |  | damage neither | no toxic changes | ≥ 1 | no direct influence on human fibro sarcoma cells | damage neither |  |  | 
H-RRKRRR-NH2 [compound 8, NH2-Arg-Arg-Lys-Arg-Arg-Arg-CONH2] | 5.70 | 5.30 | inhibit the VEGF-induced growth of vascular endothelial cells in a dose-dependent pattern |  |  | damage neither | no toxic changes | ≥ 1 |  |  | inhibited | no direct influence on human fibro sarcoma cells | damage neither
